Assay results reported in article PMC10011156, “Characterization of a highly conserved MUC5B-degrading protease, MdpL, from Limosilactobacillus fermentum” (Frontiers in Microbiology, 2023).

Target: T1, MdpL (Mucin degrading protease from Limosilactobacillus); putative O-sialoglycoprotein endopeptidase (OSGP) (Limosilactobacillus fermentum, UniProt B2GAG0)
T1 construct: gene tsaD; C-terminal Gly-Ser-Gly linker and 6xHis tag kept
T1 sequence (B2GAG0 1-344): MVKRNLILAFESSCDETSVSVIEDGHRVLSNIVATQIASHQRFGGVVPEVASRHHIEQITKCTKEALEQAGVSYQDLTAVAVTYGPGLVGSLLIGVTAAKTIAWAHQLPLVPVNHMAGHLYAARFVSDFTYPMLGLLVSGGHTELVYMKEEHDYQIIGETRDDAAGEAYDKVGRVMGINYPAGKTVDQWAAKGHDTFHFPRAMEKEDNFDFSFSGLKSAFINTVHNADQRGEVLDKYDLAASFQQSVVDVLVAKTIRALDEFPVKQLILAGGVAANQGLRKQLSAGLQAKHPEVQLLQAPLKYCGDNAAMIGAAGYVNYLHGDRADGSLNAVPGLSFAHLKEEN
Test: Etanercept hydrolysis, SDS-PAGE with densitometry
Format: biochemical
Details: inhibitor concentration per manufacturer, not given

| SMILES | inhibition level (%) |
| --- | --- |
| NCCc1ccc(S(=O)(=O)F)cc1 [AEBSF] | AEBSF, ALLN, Antipain, Chymostatin, E64, Leupeptin, and Phosphoramidon completely inhibited the MdpL activity |
| CC(C)C[C@H](NP(=O)(O)O[C@@H]1O[C@@H](C)[C@H](O)[C@@H](O)[C@H]1O)C(=O)N[C@@H](Cc1c[nH]c2ccccc12)C(=O)O [Phosphoramidon] | AEBSF, ALLN, Antipain, Chymostatin, E64, Leupeptin, and Phosphoramidon completely inhibited the MdpL activity |
| CC(C)C[C@H](NC(=O)[C@@H]1O[C@H]1C(=O)O)C(=O)NCCCCNC(=N)N [E64] | AEBSF, ALLN, Antipain, Chymostatin, E64, Leupeptin, and Phosphoramidon completely inhibited the MdpL activity |
| CC(C)C[C@H](NC(=O)[C@@H](O)[C@H](N)Cc1ccccc1)C(=O)O [Bestatin] | Bestatin, and PMSF had a moderate inhibitory effect |
